In patent US7052705B2, “Anti-angiogenic peptides” (Regeneron Pharmaceuticals, Inc., priority 2001, dated 2006):
Where “and” joins values, the source holds several entries; their conditions need not be identical. Identical values can stand only once. Like-named read-outs stand apart in the source and are kept apart here. Ends that are not written are not given here.

Columns and labels:
[1] = biological target: T1, VEGFR-2 (Homo sapiens, UniProt P35968); assay type: binding
T1 construct: In the COS-1 cells overexpressing the full-length VEGFR-2; expressed in transfected cells; host or cells: COS-1
T1 sequence (P35968 20-1356): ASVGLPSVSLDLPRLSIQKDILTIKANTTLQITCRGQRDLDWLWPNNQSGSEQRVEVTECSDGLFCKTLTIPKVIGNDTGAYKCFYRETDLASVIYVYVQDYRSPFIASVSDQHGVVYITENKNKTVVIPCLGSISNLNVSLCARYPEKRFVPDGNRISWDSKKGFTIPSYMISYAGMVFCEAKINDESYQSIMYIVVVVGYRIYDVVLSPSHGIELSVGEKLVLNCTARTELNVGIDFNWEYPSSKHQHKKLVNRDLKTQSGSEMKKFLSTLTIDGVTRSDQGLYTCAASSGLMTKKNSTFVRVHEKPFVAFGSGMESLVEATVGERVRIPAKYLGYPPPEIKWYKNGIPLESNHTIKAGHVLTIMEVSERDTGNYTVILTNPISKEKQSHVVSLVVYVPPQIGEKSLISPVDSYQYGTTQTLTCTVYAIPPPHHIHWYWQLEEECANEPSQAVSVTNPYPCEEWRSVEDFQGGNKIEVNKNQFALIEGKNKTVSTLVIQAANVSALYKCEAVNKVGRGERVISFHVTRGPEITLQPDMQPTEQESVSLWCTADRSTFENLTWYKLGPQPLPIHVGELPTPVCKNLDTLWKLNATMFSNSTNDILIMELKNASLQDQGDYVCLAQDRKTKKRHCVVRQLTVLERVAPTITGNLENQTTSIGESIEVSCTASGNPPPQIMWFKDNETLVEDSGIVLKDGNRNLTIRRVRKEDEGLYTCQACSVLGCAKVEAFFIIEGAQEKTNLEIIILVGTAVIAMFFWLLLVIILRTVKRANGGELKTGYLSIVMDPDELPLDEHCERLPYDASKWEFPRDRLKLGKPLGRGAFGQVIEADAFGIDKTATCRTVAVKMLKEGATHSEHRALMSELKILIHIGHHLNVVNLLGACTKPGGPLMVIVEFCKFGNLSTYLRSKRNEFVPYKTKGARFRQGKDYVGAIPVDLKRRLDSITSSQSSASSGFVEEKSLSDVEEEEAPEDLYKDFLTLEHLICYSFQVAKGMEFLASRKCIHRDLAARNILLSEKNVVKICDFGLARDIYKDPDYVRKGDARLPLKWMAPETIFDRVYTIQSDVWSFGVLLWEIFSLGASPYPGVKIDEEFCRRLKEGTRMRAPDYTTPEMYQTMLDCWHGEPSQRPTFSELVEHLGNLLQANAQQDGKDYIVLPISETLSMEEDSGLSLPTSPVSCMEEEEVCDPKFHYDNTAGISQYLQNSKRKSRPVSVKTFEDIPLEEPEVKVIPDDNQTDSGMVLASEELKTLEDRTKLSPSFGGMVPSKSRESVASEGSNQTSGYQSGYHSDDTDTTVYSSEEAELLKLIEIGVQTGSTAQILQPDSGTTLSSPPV
Description: (§1) When co-expressing VEGFR-2 and NP-1, 5 μg of VEGFR-2 cDNA and 2 μg of NP-1 cDNA are used. When the receptors are expressed in isolation, for VEGFR-2, 5 μg of VEGFR-2 cDNA and 2 μg of mock vector cDNA are used.
(§2) After generation of the liposome/DNA solution, the cells are rinsed one time with 5 ml Optimem I, then replaced with another 5 ml of Optimem I containing the liposome/DNA solution. The cells are incubated for two to four hours at 37° C., 5% CO2, then 5 ml of COS-1 cell growth medium is applied and the transfection is allowed to proceed overnight. The following day, cells are trypsinized (0.2% trypsin, 1 mM EDTA, Gibco-BRL), and cells containing common transfectants are pooled. […] The cells are then used for corresponding VEGFR-2/NP-1 complex formation and peptide blocking studies.
Cells are plated the day before experimentation at 200,000 cells per well in twelve well tissue culture plates (VWR) in 1 ml of growth medium specific for each cell type. […]
(§3) Unbound ligand is then removed by quickly washing three times with 5 ml ice cold BSA-free binding buffer (MEM, Gibco, 25 mM Hepes, Gibco). Cells are lysed by the addition of 250 μl of RIPS Buffer (previously described), and the lysed cells are transferred to 12×75 mm test tubes and counted using a gamma counter. […]

[2] = tested on: T2, VEGFR-2/NP-1; assay type: binding, human
T2 construct: In the COS-1 cells overexpressing the full-length VEGFR-2; the NP-1 cDNA used for these experiments would only produce the full-length receptor; expressed in transfected cells; host or cells: COS-1
Description: as §1, §2
(§4) Cells are plated the day before experimentation at 200,000 cells per well in twelve well tissue culture plates (VWR) in 1 ml of growth medium specific for each cell type. On the day of experimentation, the cells were pre-equilibrated at 4° C. for 30 to 60 minutes in binding buffer (0.2% BSA, Sigma; 25 mM Hepes, Gibco; MEM, Gibco). […] The binding reaction is allowed to reach equilibrium for four hours at 4° C. with gentle agitation.
(§5) Unbound ligand is then removed by quickly washing three times with 5 ml ice cold BSA-free binding buffer (MEM, Gibco, 25 mM Hepes, Gibco). Cells are lysed by the addition of 250 μl of RIPS Buffer (previously described), and the lysed cells are transferred to 12×75 mm test tubes and counted using a gamma counter. Generation of competition curves and IC50 values are performed using the Prism software package (Graphpad Software Inc., San Diego, Calif.).

[3] = biological target: T3, NP-1 (Homo sapiens, UniProt O14786); assay type: binding; design: the NP-1 cDNA used for these experiments would only produce the full-length receptor; expressed in transfected cells; host or cells: COS-1
T3 sequence (O14786 22-923): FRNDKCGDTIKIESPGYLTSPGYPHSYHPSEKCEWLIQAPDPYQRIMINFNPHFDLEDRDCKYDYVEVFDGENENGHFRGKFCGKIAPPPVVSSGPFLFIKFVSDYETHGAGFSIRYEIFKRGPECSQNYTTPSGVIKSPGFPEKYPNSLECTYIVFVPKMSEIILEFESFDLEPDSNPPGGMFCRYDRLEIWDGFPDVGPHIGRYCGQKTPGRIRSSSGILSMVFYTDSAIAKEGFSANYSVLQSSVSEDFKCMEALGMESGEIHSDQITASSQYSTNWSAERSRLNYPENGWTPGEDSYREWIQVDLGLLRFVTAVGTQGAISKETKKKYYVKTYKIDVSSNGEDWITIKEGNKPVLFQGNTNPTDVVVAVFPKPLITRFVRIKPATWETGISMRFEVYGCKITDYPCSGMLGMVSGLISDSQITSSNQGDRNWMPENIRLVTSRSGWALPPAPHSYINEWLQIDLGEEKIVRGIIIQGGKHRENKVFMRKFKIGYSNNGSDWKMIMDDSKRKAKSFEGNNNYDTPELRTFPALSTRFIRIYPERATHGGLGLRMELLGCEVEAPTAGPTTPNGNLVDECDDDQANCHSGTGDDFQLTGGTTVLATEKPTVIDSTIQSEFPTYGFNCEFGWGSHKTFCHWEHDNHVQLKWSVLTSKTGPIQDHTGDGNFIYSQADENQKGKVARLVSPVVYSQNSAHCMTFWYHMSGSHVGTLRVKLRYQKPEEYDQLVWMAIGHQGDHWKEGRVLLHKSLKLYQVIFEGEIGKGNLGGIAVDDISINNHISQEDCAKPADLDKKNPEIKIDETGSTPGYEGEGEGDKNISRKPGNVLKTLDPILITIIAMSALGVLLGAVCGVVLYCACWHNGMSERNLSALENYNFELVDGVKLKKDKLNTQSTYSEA
Description: as §1, §2, §4, §5

[4] = biological target: T3, NP-1; experiment: Whole cell binding assay: competition for 125I-VEGF165 in stable Balb/C 3T3 A31 cells overexpressing NP-1; conditions: for IC50: Balb/C 3T3 A31 cells, competition for 125I-VEGF165; for Relative affinity (IC50 peptide / IC50 VEGF165), NP-1: Stable Balb/c cells
Description: (§6) Balb/C 3T3 A31 VEGFR-2, NP-1, and VEGFR-2/NP1 stable cells are created using the Nolan Lab Phoenix Retroviral system, previously described.
(§7) Virus containing the hNP-1 gene is generated according to the procedure outlined previously using the QMXE cells.
(§8) Clonal cell lines are obtained by subjecting the NP-1 infected cells to neomycin selection using Balb/C growth medium containing 1.5–2.0 mg/ml G418 (Gibco-BRL) for two weeks. Single colonies are obtained and clones are subjected to Western blot analysis to confirm stable expression of NP-1.
as §4, §5

[5] = tested on: VEGFR-2/NP-1; experiment: Whole cell binding assay: competition for 125I-VEGF165 in stable Balb/C 3T3 A31 cells overexpressing VEGFR-2 and NP-1; design: species or system human
Description: as §6, §7, §8, §4, §3

[6] = tested on: COS-1 cells (Mock); experiment: Saturation analysis of 125I-VEGF165 binding, COS-1 Mock; conditions: COS-1 transient
Excerpt: To perform hNeuropilin-1 (hNP-1) and hVEGFR-2 complex formation and peptide blocking experiments, the hVEGFR-2 and hNP-1 cDNAs are cloned into the pJFE14 mammalian expression plasmid (Regeneron Pharmaceuticals) containing the SRα promoter. COS-1 cells are transiently transfected with pJFE14 (Regeneron Pharmaceuticals), hVEGFR-2 (Regeneron Pharmaceuticals), or hNP-1 (Procter & Gamble Pharmaceuticals) expression plasmids using the Lipofectamine-2000 system (Gibco-BRL). […] When co-expressing VEGFR-2 and NP-1, 5 μg of VEGFR-2 cDNA and 2 μg of NP-1 cDNA are used. When the receptors are expressed in isolation, for VEGFR-2, 5 μg of VEGFR-2 cDNA and 2 μg of mock vector cDNA are used.
as §5, with “Calif.). […]” for “Calif.).”
This possibility was evaluated by determining equilibrium binding Kd values in cells expressing VEGFR-2 alone, NP-1 alone, and cells co-expressing both receptors, using standard saturation analysis techniques as known to one skilled in the art.

[7] = tested on: Balb/c cells (Mock, endogenous NP-1); experiment: Saturation analysis of 125I-VEGF165 binding, Balb/c Mock (pGBMGH); conditions: Balb/c stable
Excerpt: Pools of infected Balb/C 3T3 A31 cells expressing hVEGFR-2 or GFP alone (Mock) are selected two times by FACS sorting using the hVEGFR-2 specific monoclonal antibody J5F4A2 (Procter & Gamble Pharmaceuticals as described in J. Biol. Chem. 276(27):25520–25531 (2001), which is expressly incorporated by reference herein in its entirety, for the VEGFR-2 cells, or by GFP emission for the Mock cells. Clonal populations of VEGFR-2 are generated by subjecting the FACS sorted VEGFR-2 cell pool to limiting dilution. A clonal hVEGFR-2 cell line termed D7R2 is selected for experimental studies based on its high levels of hVEGFR-2 expression by Western blot analysis. The pool of the Mock GFP expressing cells, hereinafter referred to as pGBMGH, is not subjected to limiting dilutions and thus is not a clonal population.
as §3
This possibility was evaluated by determining equilibrium binding Kd values in cells expressing VEGFR-2 alone, NP-1 alone, and cells co-expressing both receptors, using standard saturation analysis techniques as known to one skilled in the art. […]

[8] = tested on: VEGF165 vascular growth response; experiment: Mouse corneal pocket model; assay type: in vivo; design: key to Score #1 (subjective neovascular response score) / Score #2 (subjective neovascular response score) / Score #3 (subjective neovascular response score): subjective neovascular growth score, 0 to 6 scale; conditions: per animal, scale 0 to 6, pellet P6V8 4 μg and/or VEGF165 300 ng
Description: A 0.2 μl aliquot of this solution yielded a 4 μg dose. Human recombinant VEGF165 was purchased from R&D Systems (Minneapolis, Minn.), supplied in a lyophilized, carrier free form and reconstituted in the same water as the above peptide. A 0.2 μl aliquot of this solution yielded a 300 ng dose.
Male albino mice (Crl: CD-I (ICR) BR, VAF) from Charles River (Portage, N.C.), 20–24 grams were used. […] Compound adsorbed pellets were fabricated and implanted as described below. The treated eye was imaged on the day of implantation (day 0) and on days 4 and 7 following surgery. The growth response was subjectively graded on a scale from 0 to 6 by three independent graders blinded from the treatment grouping labels using the 3× printed image.
Polyvinyl alcohol (PVA) matrix material (Rippey, El Dorado Hills, Calif.) was cut into 1 cm×3 cm pieces and placed in a vibratome for sectioning on edge to produce 300 μm thick strips. The strips were individually sterilized by exposure to ethylene oxide. A strip was then cut under a dissecting microscope into approximately 300 μm cubes. The desired concentration of test compound or vehicle was adsorbed, sometimes utilizing a micro dessicant chamber. An HP auto sampler micro-syringe (Hamilton, P/N 7000.5) controlled the exact volume of the agent adsorbed onto the sponge. The sponge was then placed on a microscope slide prepared with a coating (20 μl spread over a 0.75 mm×1.5 mm area) of 12% hydron (Sigma, St. Louis, Mo.). The slide was protected in a clean petri dish and placed into a dessicator at 4° C. for a few hours or overnight. The dry, adsorbed sponges were mechanically flattened and overlaid with another aliquot of 12% hydron and again placed into a dessicator to cure the hydron coating. Fabrication of the adsorbed PVA sponge-hydron sandwich (referred to as a pellet) was done no more than 48 hours prior to implantation and the pellets were stored at 4° C. On the day of surgery and just prior to implantation, the pellet was trimmed so that the sponge remained encased by hydron (approximately 400 μm×400 μm×50 μm) and could be carefully removed from the slide.
Mice were anesthetized with 0.05 cc of Ketamine (140 mg/kg) and 0.03 cc Xylazine (17 mg/kg). A surgical plane of anesthesia was maintained by subsequent administration of half doses of the above compounds as needed. The whiskers on the animal's right side were trimmed down to ¼ of an inch. The right eye was bathed in an ophthalmic local anesthetic solution (Ophthaine, 0.5% tetracine hydrochloride) initially and throughout the procedure. The animal was placed on its side and the skin around the eye was gently retracted to expose the lateral and apical aspects of the cornea. The lateral limbic artery bifurcation was positioned horizontally. While stabilizing the eye against the ocular orbit, a vertical incision was made using a micro scalpel into the corneal tissue just lateral to the pupil. Care was taken to prevent accidental perforation of the anterior eye chamber. The incision depth was carefully deepened until a delicate and small lateral stab could be made (on axis with the lateral limbic artery bifurcation) with the micro scalpel into the middle of the corneal stroma. This lateral, intrastromal incision was enlarged by blunt dissection with very fine forceps until a pocket was formed from the vertical incision toward the limbus.
A hydron coated PVA sponge with adsorbed test compound (pellet) was prepared for implantation by carefully excising and removing it from the microscope slide. The pellet was introduced gently into the corneal pocket and advanced to within 1–2 mm of the limbus. The edges of the vertical corneal incision were approximated to encourage rapid healing. The imaging procedure (described below) was used to document the native limbic vascular architecture at the time of implantation. Post surgical recovery of the animal consisted of triple antibiotic ophthalmic ointment to prevent corneal drying, abrasion and infection. […]

Substance | Relative Affinity to Lead Peptide (RALP), VEGFR-2 [1] | Relative Affinity to Lead Peptide (RALP), NP-1 [3] | Relative Affinity to Lead Peptide (RALP), VEGFR-2/NP-1 [2] | IC50 [4] [nM] | Relative affinity (IC50 peptide / IC50 VEGF165), NP-1 [4] | Relative affinity (IC50 peptide / IC50 VEGF165), VEGFR-2/NP-1 [5] | other results
H-RRPKGRGKRAAAKQRPSDKPRR-OH [AS-3, RRP KGR GKR AAA KQR PSD KPR R] | 4 | 0.55 | – | – | – | – | Relative Affinity to Lead Peptide (RALP), VEGFR-2/NP-1 ([2]; AS series, lead peptide P6V8CS, COS-1, NC = no competition): complete loss of binding
RRPKGRGKRRREAAAPSDKPRR [AS-4] | – | 0.45 | 4.2 | 17.8 | 112 | 3,856 | selectivity for cells expressing NP-1 alone versus cells co-expressing VEGFR-2 and NP-1 ([3]; COS-1): about 100 fold
VEGF165: human recombinant VEGF165 (R&D Systems), vascular endothelial growth factor isoform 165 | – | – | – | – | – | – | Kd [6]: 1.11 nM; Log Kd ± SEM [6]: −8.95 ± 0.31; Kd [7]: 0.222 nM; Log Kd ± SEM [7]: −9.65 ± 0.13; Score #1 (subjective neovascular response score) ([8]; grader 1): 2 (2×) and 3 (3×) and 4 (2×) and 5; Score #2 (subjective neovascular response score) ([8]; grader 2): 2 (3×) and 4 (4×) and 5; Score #3 (subjective neovascular response score) ([8]; grader 3): 2 (3×) and 3 (2×) and 4 and 5 (2×)
KGRGKRRREKQRPCDKPRR [Peptide P6V8-3N, KGR GKR RRE KQR P CDK PRR] | – | – | – | 254 | 1,607 | 6,928 | –
H-RRPKGRGKRRREKQRAAAKPRR-OH [AS-4A] | 1.9 | 2.1 | 0.78 | – | – | – | –
